Patent publication US20220220448A1, “INDUCED HUMAN COLITIC ORGANOIDS” (The Cleveland Clinic Foundation, priority 2019, published 2022)

What was measured:
iHUCOs = assay: Repertaxin in vivo: UC spheroids in TS-HA hydrogel beads implanted subcutaneously in NSG mice
From the text: (§1) FIGS. 7A-U: Repertaxin attenuates the progression of the colitic phenotype in iHUCOs in vivo. (A) Schematic representation of repertaxin study in vivo; spheroids encapsulated in TS-HA hydrogel beads were implanted subcutaneously in the dorsal flanks of immunocompromised NSG mice receiving daily injections of repertaxin vs. PBS (21 days). (B, C) Representative immunofluorescence dual-staining of CXCR1 (red) and CXCL8 (green) expressed in epithelium and mesenchyme of iHNO and iHUCO in Ctrl (B) or repertaxin-treated (C). (D, E) Summarized percentages of cells positive for CXCR1, CXCL8 and both, in the epithelium and mesenchyme of non-IBD and UC organoids, after treatment with repertaxin (20 mg/kg) compared to PBS (Ctrl). (F-G) Representative H&E of non-IBD and UC organoids harvested after 21 days for control (F) and repertaxin treatment (G). (H, I) Mean organoid diameter and epithelial thickness after 21 days of repertaxin treatment vs. Ctrl. […] Results reported for the plasma membrane only (Mem), and cytoplasm+nucleus (Cyt+Nuc) cellular compartments. (R, S) Representative immunohistochemistry of RhoA, highlighting the effect of repertaxin on the cellular localization of the protein in plasma membrane only (Mem), and cytoplasm (Cyt) compartments. (T, U) Summarized percentages of cells expressing RhoA in Ctrl vs. repertaxin-treated organoids for plasma membrane-only (Mem) and cytoplasm (Cyt). IHC Scale bar, 40 um. IF Scale bar, 25 um. N=3 each. ns=not significant, *(p<0.05), **(p<0.01), ***(p<0.001), ****(p<0.0001). […] To test the significance of our repertaxin observations in vivo, we studied the effect of repertaxin on the developmental progression of spheroids to organoids, implanted subcutaneously in the dorsal flank of NSG mice (FIG. 7A, STAR Methods). In brief, we encapsulated the spheroids in TS-HA hydrogel beads and implanted the beads subcutaneously. Mice were then treated daily for 21 days with either 20 mg/kg repertaxin or PBS (control). The rate of growth was measured twice per week with calipers, and the volume calculated (STAR Methods).

[1] = test system: epithelial barrier of non-IBD organoids (iHNOs); assay: Epithelial barrier permeability by microinjection of 4 kD dextran, real-time, iHNOs; assay type: cell-based, human; details: 4 kDa dextran, 15 hours, treated vs untreated
From the text: (§2) FIGS. 6A-U: Repertaxin attenuates the progression of the colitic phenotype in iHUCOs in vitro. (A, B) Representative immunofluorescence co-localization expression of CXCR1 (red) and CXCL8 (green) expressed in epithelium and mesenchyme of iHNO and iHUCO in the absence (A) or presence of repertaxin (B). (C, D) Summarized percentages of cells positive for CXCR1, CXCL8 and both, in the epithelium and mesenchyme of non-IBD and UC iHCOs, after treatment with repertaxin (20 μm) compared to vehicle (Ctrl). (E) Representative H&E of non-IBD and UC organoids in Ctrl compared to repertaxin treated (F). (G, H) Organoid mean diameter and epithelial thickness after 21 days of treatment with repertaxin compared to control. […] (S, T) Quantification of the percentage of the cells in control vs. repertaxin-treated organoids, positive for RhoA in plasma membrane-only (Mem) and cytoplasm (Cyt). […] IHC Scale bar, 40 um. IF Scale bar, 25 um. N=3 each; except for barrier studies, N=1. ns: not significant, **(p<0.01), ***(p<0.001), ****(p<0.0001). Moreover, to functionally confirm the adherens vs. tight junction signature in UC compared to non-IBD organoids, we used the recently described microinjection technique by Hill et al. to measure and compare the epithelial barrier permeability for both UC and non-IBD organoids in real-time. […]

iHNOs = assay: Repertaxin in vivo: non-IBD spheroids in TS-HA hydrogel beads implanted subcutaneously in NSG mice
From the text: as §1

iHUCOs (UC organoids) = assay: Repertaxin treatment of iHUCOs in vitro during development from spheroids to organoids (IF, IHC, H&E, in situ hybridization); assay type: cell-based, human
From the text: (§3) FIGS. 6A-U: Repertaxin attenuates the progression of the colitic phenotype in iHUCOs in vitro. (A, B) Representative immunofluorescence co-localization expression of CXCR1 (red) and CXCL8 (green) expressed in epithelium and mesenchyme of iHNO and iHUCO in the absence (A) or presence of repertaxin (B). (C, D) Summarized percentages of cells positive for CXCR1, CXCL8 and both, in the epithelium and mesenchyme of non-IBD and UC iHCOs, after treatment with repertaxin (20 μm) compared to vehicle (Ctrl). (E) Representative H&E of non-IBD and UC organoids in Ctrl compared to repertaxin treated (F). (G, H) Organoid mean diameter and epithelial thickness after 21 days of treatment with repertaxin compared to control. […] (S, T) Quantification of the percentage of the cells in control vs. repertaxin-treated organoids, positive for RhoA in plasma membrane-only (Mem) and cytoplasm (Cyt). […] IHC Scale bar, 40 um. IF Scale bar, 25 um. N=3 each; except for barrier studies, N=1. ns: not significant, **(p<0.01), ***(p<0.001), ****(p<0.0001). The upregulation of the CXCL8 receptor pro-inflammatory interaction in iHUCOs (FIG. 5) led us to study the effect of repertaxin, a small molecule inhibitor of the CXCL8 receptor, on organoids development. In brief, we treated both UC and non-IBD organoids with repertaxin for 21 days, during their development from spheroids to organoids and compared their phenotypic characteristics to vehicle (Ctrl) organoids.

[2] = test system: iHNOs (non-IBD organoids); assay: Repertaxin treatment of iHNOs in vitro during development from spheroids to organoids (IF, IHC, H&E); assay type: cell-based, human
From the text: as §3

[3] = test system: UC epithelial barrier (iHUCOs); assay: Epithelial barrier permeability by microinjection of 4 kD dextran, real-time, iHUCOs; assay type: cell-based, human; details: 4 kDa dextran, 15 hours, treated vs untreated
From the text: as §2

[4] = UC organoids, 20 mg/kg daily, 21 days, vs PBS
[5] = iHUCOs, 20 mg/kg daily, 21 days, vs PBS
[6] = iHUCOs, IHC, vs untreated control
[7] = non-IBD organoids, 20 mg/kg daily, 21 days, vs PBS
[8] = UC organoids, IHC, repertaxin vs control
[9] = iHUCOs epithelium, IHC, repertaxin vs control
[10] = iHUCOs, 21 days repertaxin vs control
[11] = iHUCOs, repertaxin (20 μm), 21 days, vs control
[12] = iHUCOs, repertaxin (20 μm), 21 days, vs vehicle (Ctrl), average
[13] = iHNOs, IHC, repertaxin vs control
[14] = non-IBD organoids, 21 days repertaxin vs control
[15] = non-IBD organoids, IHC, repertaxin vs control
[16] = non-IBD organoids, repertaxin (20 μm), 21 days, vs control

SMILES: CC(C)Cc1ccc([C@@H](C)C(=O)NS(C)(=O)=O)cc1 [repertaxin]
- overall calculated volume of implanted beads (iHUCOs; 20 mg/kg repertaxin daily for 21 days vs PBS, groups (UC and non-IBD) not told apart): significantly greater in the PBS than in the repertaxin-treated groups
- CXCL8 expression (iHUCOs; [4]): less
- CXCR1 expression (iHUCOs; [4]): less
- Ki67 proliferation rate in the epithelium (iHUCOs; [5]): significantly reduced
- epithelial thickness (iHUCOs; [5]): significant less thick epithelium
- Claudin-1 expression (iHUCOs; iHUCOs, IHC, vs control): significantly increased
- cytoplasmic expression of RhoA (iHUCOs; iHUCOs, IHC, vs control): strongly decreased
- membranous expression of RhoA (iHUCOs; iHUCOs, IHC, vs control): strongly decreased
- cytoplasmic and nuclear expression of E-cadherin (iHUCOs; [6]): greater cytoplasmic and nuclear expression
- cytoplasmic and nuclear expression of β-catenin (iHUCOs; [6]): greater cytoplasmic and nuclear expression
- epithelial permeability (dye release) [1]: did not have a significant effect
- epithelial thickness (iHNOs; iHNOs, 20 mg/kg daily, 21 days, vs PBS): no significant effect
- E-cadherin expression pattern (iHNOs; iHNOs, IHC, vs control): higher rate of expression in membrane
- RhoA expression (iHNOs; iHNOs, IHC, vs control): did not have a significant effect
- β-catenin expression pattern (iHNOs; iHNOs, IHC, vs control): higher rate of expression in membrane
- Ki67 proliferation rate in the epithelium (iHNOs; non-IBD epithelium, 20 mg/kg daily, 21 days, vs PBS): did not have a significant effect
- CXCL8 expression (iHNOs; [7]): less
- CXCR1 expression (iHNOs; [7]): less
- Claudin-1 expression (iHNOs; non-IBD organoids, IHC, vs control): did not change
- cytoplasmic and nuclear expression of E-cadherin (iHUCOs (UC organoids); [8]): greater
- cytoplasmic and nuclear expression of β-catenin (iHUCOs (UC organoids); [8]): greater
- RhoA expression in cytoplasm (iHUCOs (UC organoids); [9]): less RhoA expression
- less RhoA expression on the membrane (activated RhoA) (iHUCOs (UC organoids); [9]): ~5 fold
- epithelial thickness (iHUCOs (UC organoids); [10]): less thick epithelium
- organoid size (iHUCOs (UC organoids); [10]): significantly lower size
- Claudin-1 expression (iHUCOs (UC organoids); iHUCOs, IHC, repertaxin vs control): significantly more expression
- CXCL8 expression (iHUCOs (UC organoids); [11]): significantly lower than control
- percentage of co-expression of CXCL8/CXCR1 (iHUCOs (UC organoids); [11]): significantly lower than control
- lower expression of CXCR1 in the epithelium (iHUCOs (UC organoids); [12]): 7 fold
- lower expression of CXCR1 in the mesenchyme (iHUCOs (UC organoids); [12]): 9 fold
- expression pattern of p-YAP1 (iHUCOs (UC organoids); treated iHUCOs, IHC): more closely resembled the expression patterns in iHNOs
- expression pattern of LGR5 (iHUCOs (UC organoids); treated iHUCOs, in situ hybridization): more closely resembled the expression patterns in iHNOs
- Ki67 expression in the epithelium (proliferation) [2, 13]: significantly lower expression
- RhoA expression [2, 13]: did not significantly affect
- Claudin-1 expression ([2]; iHNOs, IHC, treated vs control): no significant changes
- epithelial thickness [2, 14]: did not change
- organoid size [2, 14]: significantly smaller organoids
- cells with expression of E-cadherin limited to the plasma membrane [2, 15]: significantly more cells with limited expression
- cells with expression of β-catenin limited to the plasma membrane [2, 15]: significantly more cells with limited expression
- cytoplasmic and nuclear expression of E-cadherin [2, 15]: lower cytoplasmic and nuclear expression
- cytoplasmic and nuclear expression of β-catenin [2, 15]: lower cytoplasmic and nuclear expression
- CXCL8 expression [2, 16]: significantly less
- CXCR1 expression [2, 16]: significantly less
- rate of permeability of the epithelial barrier (dye release) [3]: significantly decreased
- real-time measurement timepoints with significantly decreased permeability [3]: 50%
